Legend:
[1] = system: Rhizoctonia solani; assay: Poison food technique (contact action), mycelial growth inhibition in PDA; assay type: cell-based, Rhizoctonia solani AG-4, isolate Rs 23A; conditions: for PoisonB1 % inhibition: poison bed experiment 1; for PoisonB2 % inhibition: poison bed experiment 2; for Inhibition of R. solani growth by contact (poison bed assay), in words: in vitro, PDA
Experimental: (§1) Fungal isolate and preparation of inoculum: Rhizoctonia solani AG-4, isolate Rs 23A is a highly virulent pathogenic isolate which infects many vegetables, ornamentals and turfgrasses (Lewis, J. A., and G. C. Papavizas, Soil Biology and Biochemistry, 9:195-201 (1987)). The fungus was grown in potato dextrose agar (PDA) plates and fungal plugs from the freshly growing mycelium were mixed with moist sterilized cracked wheat in a 2 L flask for 15 days in dark at 22° C. (Lakshman, D. K., et al., Proceedings of the National Academy of Science, USA, 95: 6425-6429 (1998)). The infested wheat was air dried in a sterile hood for 3 days, blended in a homogenizer and sieved through a mesh and stored at 2° C. before soil inoculation. A dose response of the inocula was carried out by thoroughly mixing using 0.25, 0.5, 0.75, 1.0, 1.25 and 1.50 g inoculums per Kg dry weight potting soil plus sterile water to maintain 25-30% moisture and incubating at room temperature for two weeks before sowing cucumber (cv muncher) seeds with the infested soil. The percent germination and post-emergence damping off of cucumber seedlings were recorded. The lowest inoculums dose that induced 100% postemergence damping off was estimated to be 1 to 1.25 g/Kg soil for inocula prepared over the span of the experiments. For soil fumigation with plant extracts (PEs), each time the minimum inoculum dose giving rise to 100% damping off was used.
In vitro bioassays: Two in vitro bioassay methods were used to investigate the mycelial growth inhibitory potentials of PEs. In the poison food technique, test chemical/plant extract was mixed at concentrations of 15, 30, 45, 60, 75, and 150 μl per 20 ml autoclaved PDA at 50° C., poured on three sterile disposable plastic plates (100×15 mm, Fisherbrand) at 20 ml/plate and cooled to room temperature to solidify (Dhingra, O.D., and J. B. Sinclair, 1995, Basic Plant Pathology Methods, 2nd Edition, Lewis Publishers, Boca Raton and London). […] Each plate was seeded in the center with a 5 mm diameter agar disk of the freshly grown Rhizoctonia pathogen, mycelial side facing the medium, and sealed with stretched Parafilm® M (Fisher Scientific). The plates were incubated in the dark at room temperature and when the pathogen reached to the edge of the plates in the control treatment (soybean oil), radial measurement of fungal growth in plates treated with PEs were recorded by taking three measurements from each plate. The experiment was repeated one more time. The percent mycelial growth inhibition (MGI) due to PE was calculated using the following formula: […] where dc=Avg. radial growth in mm of pathogen in control plate; dt=avg. radial growth in mm of pathogen in treated plate.

[2] = system: Rhizoctonia solani; assay: Filter disk fumigation method, mycelial growth inhibition on PDA; assay type: cell-based, Rhizoctonia solani AG-4, isolate Rs 23A; conditions: for Fumig1 % inhibition: fumigation experiment 1; for Fumig2 % inhibition: fumigation experiment 2; for Inhibition of R. solani growth by fumigation action, in words: in vitro, filter disk
Experimental: as §1
In the second protocol, the chemical was kept not in direct contact with the fungus and we hypothesized that the plant extract will most likely influence the growth of the pathogen by fumigation action. In this approach, three sterile 15 mm filter paper (Whatman International Ltd, Maidstone, UK) disks were placed on the edge of each of three plates on the PDA. Each disk was impregnated in the center with various amounts (5-50 ul/disk) of the test solution/suspension. For negative control, only soybean oil was placed in the filter disk. […] The average radial growth was calculated and the experiment was repeated one more time. Percent growth inhibition was calculated as reported for poison bed assay.

[3] = system: Rhizoctonia solani; assay: Fungicidal vs fungistatic potential (regrowth of mycelial plugs on fresh PDA, 7 days); assay type: cell-based, Rhizoctonia solani AG-4, isolate Rs 23A
Experimental: The fungicidal and fungistatic potential of the PEs were determined by the method described by Garber and Houstan (Garber R. H., and B. R. Houston, Phytopathology, 49: 449-450 (1959)). In brief, three 5 mm diameter plugs were taken from the peripheral mycelial growth from each plate and placed in a fresh PDA plate. Following incubation at room temperature for 7 days, observations were recorded for new mycelial growth (fungistatic) or no mycelial growth (fungicidal). As control, peripheral mycelial plugs from soybean oil amended PDA plates were checked for fresh mycelial growth in fresh PDA plates.

[4] = system: cucumber seeds; assay: Greenhouse assay of seed germination and phytotoxicity, soil treated with plant extract alone; conditions: in vivo
Experimental: Soil treatment: For each treatment, 300 g of dry greenhouse soli (Pro-mix, Premier Horticulture LTD, Red Hill, Pa.) was thoroughly mixed with Rhizoctonia inoculum and incubated for 15 days as described above. […] The infested soil treated with only the carrier solution served as an untreated control. Following the treatment, the soil was thoroughly stirred to mix the contents and incubated in a double polythene bag closed tightly in the dark at room temperature for four days for fumigation to occur. Following the incubation, the bag was opened to allow as much PE to dissipate as possible. This was done by sprinkling the surface soil with sterile water every other day, and stirring the soil once every day for seven days. For assay of effect on seed germination and phytotoxicity of the plant extracts, soil was treated with plant extract formulations alone.
Greenhouse studies: Treated soil from each treatment was distributed to 4-inch plastic pots into which 12 seeds of cucumbers (95-100% germination) were sown and lightly watered to keep soil moist. The treatments were color coded and pots were randomized across treatment. All plants were kept in a greenhouse between 20° C. (night) to 26° C. (day) with 14 h of light. There were three pots per treatment in each experiment, and the experiment was repeated three times. As positive control, a broad spectrum popular soil fungicide Banrot® 40 WP (The Scotts Company, Ohio) was used following manufacturer's recommendation to control the disease. Total number of seedlings without any sign of damping off in each pot was recorded and percentage of disease suppression were calculated four weeks after sowing cucumber seeds.

[5] = system: Rhizoctonia solani; assay: Greenhouse suppression of damping off of cucumber seedlings in R. solani infested soil amended with plant extract; assay type: in vivo, Rhizoctonia solani AG-4, isolate Rs 23A; conditions: for % Disease suppression (+ PE + R. solani): cucumber damping off, soil amendment at 0.3% (v/w), four weeks after sowing; for Avg. seed Germination (+ PE + R. solani): cucumber, 12 seeds sown per pot, infested soil amended with 0.3% PE
[6] = cucumber, 0.3 % of PE in soil (3000 ppm)

## C=CCc1ccc(OC)cc1
[1]; amount oil 15 μL/20 mL plate
  PoisonB1 % inhibition: 94%
  PoisonB2 % inhibition: 13%
[1]; amount oil 30 μL/20 mL plate
  PoisonB1 % inhibition: 100%
  PoisonB2 % inhibition: 56%
[1]; amount oil 45 μL/20 mL plate
  PoisonB1 % inhibition: 100%
  PoisonB2 % inhibition: 92%
[1]; amount oil 60 μL/20 mL plate
  PoisonB1 % inhibition: 100%
  PoisonB2 % inhibition: 100%
[1]; amount oil 75 μL/20 mL plate
  PoisonB1 % inhibition: 100%
  PoisonB2 % inhibition: 100%
[1]; amount oil 150 μL/20 mL plate
  PoisonB1 % inhibition: 100%
  PoisonB2 % inhibition: 100%
[1]
  Inhibition of R. solani growth by contact (poison bed assay), in words: potent inhibitors
[2]; amount oil 15 μL/20 mL plate
  Fumig1 % inhibition: 95%
  Fumig2 % inhibition: 97%
[2]; amount oil 30 μL/20 mL plate
  Fumig1 % inhibition: 97%
  Fumig2 % inhibition: 102%
[2]; amount oil 45 μL/20 mL plate
  Fumig1 % inhibition: 97%
  Fumig2 % inhibition: 102%
[2]; amount oil 60 μL/20 mL plate
  Fumig1 % inhibition: 97%
  Fumig2 % inhibition: 100%
[2]; amount oil 75 μL/20 mL plate
  Fumig1 % inhibition: 98%
  Fumig2 % inhibition: 103%
[2]; amount oil 150 μL/20 mL plate
  Fumig1 % inhibition: 99%
  Fumig2 % inhibition: 103%
[2]
  Inhibition of R. solani growth by fumigation action, in words: potent inhibitors
[3]; amount oil 15 μL/20 mL plate
  Effect (fumigation): S
  Effect (poison bed, contact action): S
[3]; amount oil 30 μL/20 mL plate
  Effect (fumigation): S
  Effect (poison bed, contact action): S
[3]; amount oil 45 μL/20 mL plate
  Effect (fumigation): S
  Effect (poison bed, contact action): S
[3]; amount oil 60 μL/20 mL plate
  Effect (fumigation): S
  Effect (poison bed, contact action): S
[3]; amount oil 75 μL/20 mL plate
  Effect (fumigation): S
  Effect (poison bed, contact action): S
[3]; amount oil 150 μL/20 mL plate
  Effect (fumigation): S
  Effect (poison bed, contact action): S
[3]; in vitro, fumigation and contact action
  Fungicidal vs fungistatic nature: fungistatic
[4]
  % Seed germination (+ PE only): 75.00%
  Avg. seed germination (+ PE only): 9.00
[5]
  % Disease suppression (+ PE + R. solani): 58.33%
  Avg. seed Germination (+ PE + R. solani): 7.00

## CC=Cc1ccc(OC)cc1 [Anethole]
[1]; amount oil 15 μL/20 mL plate
  PoisonB1 % inhibition: 100%
  PoisonB2 % inhibition: 100%
[1]; amount oil 30 μL/20 mL plate
  PoisonB1 % inhibition: 100%
  PoisonB2 % inhibition: 100%
[1]; amount oil 45 μL/20 mL plate
  PoisonB1 % inhibition: 100%
  PoisonB2 % inhibition: 100%
[1]; amount oil 60 μL/20 mL plate
  PoisonB1 % inhibition: 100%
  PoisonB2 % inhibition: 100%
[1]; amount oil 75 μL/20 mL plate
  PoisonB1 % inhibition: 100%
  PoisonB2 % inhibition: 100%
[1]; amount oil 150 μL/20 mL plate
  PoisonB1 % inhibition: 100%
  PoisonB2 % inhibition: 100%
[1]
  Inhibition of R. solani growth by contact (poison bed assay), in words: potent inhibitors
[2]; amount oil 15 μL/20 mL plate
  Fumig1 % inhibition: 99%
  Fumig2 % inhibition: 90%
[2]; amount oil 30 μL/20 mL plate
  Fumig2 % inhibition: 85%
[2]; amount oil 45 μL/20 mL plate
  Fumig2 % inhibition: 86%
[2]; amount oil 60 μL/20 mL plate
  Fumig2 % inhibition: 89%
[2]; amount oil 75 μL/20 mL plate
  Fumig2 % inhibition: 97%
[2]; amount oil 150 μL/20 mL plate
  Fumig2 % inhibition: 102%
[2]
  Inhibition of R. solani growth by fumigation action, in words: potent inhibitors
[3]; amount oil 15 μL/20 mL plate
  Effect (fumigation): S
  Effect (poison bed, contact action): S
[3]; amount oil 30 μL/20 mL plate
  Effect (fumigation): S
  Effect (poison bed, contact action): S
[3]; amount oil 45 μL/20 mL plate
  Effect (fumigation): S
[3]; amount oil 60 μL/20 mL plate
  Effect (fumigation): S
[3]; amount oil 75 μL/20 mL plate
  Effect (fumigation): S
[3]; amount oil 150 μL/20 mL plate
  Effect (fumigation): S
[3]; in vitro, higher concentrations
  Fungicidal vs fungistatic nature at higher concentrations: fungicidal
[4]; [6]
  % Seed germination (+ PE only): 75.00%
  Avg. seed germination (+ PE only): 9.00
[5]
  % Disease suppression (+ PE + R. solani): 58.33%
  Avg. seed Germination (+ PE + R. solani): 7.00
